The results in this text go back to patent US20240101602A1, “ANTIMICROBIAL PEPTIDES AND METHOD OF PREVENTING OR TREATING INFECTION BY USING THE SAME” (priority 2020, published 2024).

One data set has as its system Cgl FST02. In kind it is cell-based, Colletotricum gloeosporioides. Particulars: Cgl FST02; optimal minimal medium, crude peptides (Table 9).
For data set [1], the system named is bacteria, fungal spores, and fungal mycelia. It is filed as cell-based. As to conditions: SYTOX Green, crude peptides, room temperature in dark for 2 h.
Another data set in a line: in vitro. In kind it is cell-based. Particulars: human, HEK293 cells. The method, then: PepD3 was dissolved in water and filtered through a 0.2-μm filter. The peptide concentration was quantitated by UV280 to make a stock solution of 5120 μg/mL. The pepD3 stock solution was serially diluted in the serum-free DMEM. […] The serum-free DMEM medium without peptide was used as negative control. Cell viability was assessed using the Cell Titer 96 Aqueous One Solution Cell Proliferation Assay (Promega), in accordance with the manufacturer's instructions. The absorbance was measured with an Infinite M1000 pro (Tecan) at a wavelength of 490 nm. Data were normalized to the negative control to obtain the percentage of cell viability.

Data set [2] deals with Xanthomonas oryzae pv. oryzae strain Xoo28. Particulars: Xoo Xoo28; Table 7.
Data set [3] relates to Agrobacterium tumefaciens strain Atu C58C1.
Data set [4] deals with Pseudomonas syringae pv. syringae strain B728a. As to conditions: Pss B728a; Table 7.
In data set [5] the test system is Klebsiella pneumonia NTUH-K2044.

For orientation: MIC means the lowest concentration found to suppress growth. By viability is commonly meant the share of living cells, or the viability signal relative to a control. Low values mean more harm to the cells, high ones less harm to the cells. As usually defined, the MBC is the lowest tested concentration that kills the bacteria rather than only halting them. With Ac-WKKLKKLLKKL-NH2 [pepD3], the MBC/MFC entry with Cgl FST02 was “— (“—” indicates no antimicrobial activity being detected at the highest peptide concentration (32 μg/mL) tested in this study.)”. For the same substance, the MIC entry with Cgl FST02 was “— (“—” indicates no antimicrobial activity being detected at the highest peptide concentration (32 μg/mL) tested in this study.)”; in data set [2] it was 3.6 µg/mL; in data set [4], 10.0 µg/mL; in data set [5] it was 16 µg/mL. Further, in data set [1], the “membranolytic effect on the cell walls of bacteria, fungal spores, and fungal mycelia” value is given as “significant membranolytic effect”. Besides, in “in vitro”, the viability at 1 h, 32 µg/mL was > 91%. Also, the MBC in data set [2] is 4.4 µg/mL; in data set [3] it was 2.4 µg/mL; in data set [4], 16.0 µg/mL; in data set [5], 16 µg/mL.
